Measurements from the supplement of paper PMC13207355.

Key:
Settings in all cases: exposure time: 72 h
[1] = system: E34 (patient-derived glioblastoma stem cells of proneural subtype); assay: surviving fraction (nuclei count normalised to DMSO); higher = more cells surviving (less toxic)
[2] = system: E13 (patient-derived glioblastoma stem cells of classical subtype); assay: as above
[3] = system: E28 (patient-derived glioblastoma stem cells of classical subtype); assay: as above
[4] = system: E21 (patient-derived glioblastoma stem cells of mesenchymal subtype); assay: as above
[5] = system: E31 (patient-derived glioblastoma stem cells of proneural subtype); assay: as above
[6] = system: FT3469 (normal neural stem cell line); assay: as above
[7] = system: E57 (patient-derived glioblastoma stem cells of mesenchymal subtype); assay: as above
[8] = system: E34; assay: phenotypic distance (Euclidean, principal components) from DMSO controls (arbitrary units); higher = stronger morphological change
[9] = system: E13; assay: as above
[10] = system: E28; assay: as above
[11] = system: E21; assay: as above
[12] = system: E31; assay: as above
[13] = system: FT3469; assay: as above
[14] = system: E57; assay: as above
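For phenotypic distance (Euclidean, principal components) from DMSO controls in this document: cell Painting imaging in 384-well plates, CellProfiler features reduced to at least 20 principal components, Euclidean distance versus same-plate DMSO vehicle wells (0.1% v/v), median over six images per well.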
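For surviving fraction (nuclei count normalised to DMSO) in this document: nuclei counted by high-content imaging of Hoechst-stained cells in laminin-coated 384-well plates, relative to 0.1% DMSO vehicle wells, with staurosporine as cell-death control.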

COc1cccc2c(NCc3ccccc3)nc(-n3c(N)nc4ccccc43)nc12 [ML240]
Settings	phenotypic distance	surviving fraction
[1], 4.1 nM	–	1.18
[1], 12.3 nM	–	1.12
[1], 37 nM	–	1.04
[1], 111.1 nM	–	1.05
[1], 333.3 nM	–	1.18
[1], 1000 nM	–	0.54
[1], 3000 nM	–	0.00732
[2], 4.1 nM	–	1.1
[2], 12.3 nM	–	0.999
[2], 37 nM	–	1.1
[2], 111.1 nM	–	1.02
[2], 333.3 nM	–	0.985
[2], 1000 nM	–	0.147
[2], 3000 nM	–	0.00521
[3], 4.1 nM	–	1.09
[3], 12.3 nM	–	0.996
[3], 37 nM	–	1.01
[3], 111.1 nM	–	1.17
[3], 333.3 nM	–	1.03
[3], 1000 nM	–	0.32
[3], 3000 nM	–	0.0108
[4], 4.1 nM	–	1.05
[4], 12.3 nM	–	1.01
[4], 37 nM	–	1.02
[4], 111.1 nM	–	1.1
[4], 333.3 nM	–	1.03
[4], 1000 nM	–	1.11
[4], 3000 nM	–	0.0028
[5], 4.1 nM	–	0.934
[5], 12.3 nM	–	1.36
[5], 37 nM	–	1.1
[5], 111.1 nM	–	1.17
[5], 333.3 nM	–	1.19
[5], 1000 nM	–	0.0987
[5], 3000 nM	–	0
[6], 4.1 nM	–	0.963
[6], 12.3 nM	–	1.03
[6], 37 nM	–	1.15
[6], 111.1 nM	–	1.33
[6], 333.3 nM	–	1.25
[6], 1000 nM	–	0.68
[6], 3000 nM	–	0.00884
[7], 4.1 nM	–	0.984
[7], 12.3 nM	–	0.993
[7], 37 nM	–	1.05
[7], 111.1 nM	–	0.972
[7], 333.3 nM	–	1.08
[7], 1000 nM	–	0.255
[7], 3000 nM	–	0.00471
[8], 4.1 nM	0.596	–
[8], 12.3 nM	0.636	–
[8], 37 nM	0.602	–
[8], 111.1 nM	0.587	–
[8], 333.3 nM	0.358	–
[8], 1000 nM	1.49	–
[8], 3000 nM	14.2	–
[9], 4.1 nM	0.694	–
[9], 12.3 nM	0.435	–
[9], 37 nM	0.787	–
[9], 111.1 nM	0.753	–
[9], 333.3 nM	0.67	–
[9], 1000 nM	8.35	–
[9], 3000 nM	10.2	–
[10], 4.1 nM	0.413	–
[10], 12.3 nM	0.802	–
[10], 37 nM	0.589	–
[10], 111.1 nM	0.977	–
[10], 333.3 nM	0.531	–
[10], 1000 nM	5.33	–
[10], 3000 nM	7.6	–
[11], 4.1 nM	0.814	–
[11], 12.3 nM	0.418	–
[11], 37 nM	0.532	–
[11], 111.1 nM	0.655	–
[11], 333.3 nM	0.51	–
[11], 1000 nM	1.08	–
[11], 3000 nM	13.5	–
[12], 4.1 nM	0.647	–
[12], 12.3 nM	0.799	–
[12], 37 nM	0.394	–
[12], 111.1 nM	0.491	–
[12], 333.3 nM	0.297	–
[12], 1000 nM	6.73	–
[12], 3000 nM	18.7	–
[13], 4.1 nM	0.656	–
[13], 12.3 nM	0.706	–
[13], 37 nM	0.538	–
[13], 111.1 nM	1.16	–
[13], 333.3 nM	0.736	–
[13], 1000 nM	1.85	–
[13], 3000 nM	11.7	–
[14], 4.1 nM	0.375	–
[14], 12.3 nM	0.566	–
[14], 37 nM	0.385	–
[14], 111.1 nM	0.473	–
[14], 333.3 nM	1.84	–
[14], 1000 nM	4.85	–
[14], 3000 nM	6.71	–
